Molecules are shown by their SMILES. Some results are limits rather than exact numbers.

Experiment [1] has as its system Human mast cells (CHMC cells). Nature of the experiment: Tryptase release assay (mast cell degranulation induced by anti-IgG FcγR cross-linking). The format is cell-based. The settings on record: IC50 of tryptase release from human mast cells after anti-IgG stimulation, read-out: LD Tryptase. As to the method:
Compounds were assayed for inhibition of mast cell activation induced by FcγR cross-linking by measuring the activity of tryptase released upon degranulation as follows:
Human mast cells were cultured and differentiated from […] progenitor cell as described in U.S. Patent Publication No. 2005-234049, incorporated herein by reference. For example, 65 μl of various concentrations of the compound to be assayed were prepared in MT (137 mM NaCl, 2.7 mM KCl, 1.8 mM CaCl2, 1.0 mM MgCl2, 5.6 mM Glucose, 20 mM Hepes (pH 7.4), 0.1% Bovine Serum Albumin, (Sigma A4503)) containing 2% MeOH and 1% DMSO, or control buffer were added to duplicate 96-well V-bottom plates. Pelleted and resuspended (in warm MT) CHMC cells (65 μl) were added to each 96-well plate, mixed and incubated for 1 hour at 37° C. 25 μl of 6× anti-IgG Rabbit anti-human IgG, Affinity purified (Bethyl Laboratories Cat No. A80-105A3) final concentration 1 μg/ml, was added to the test wells. MT (25 μl) was added to control wells. After a 60-minute incubation at 37° C., cells and cell debris were pelleted by centrifugation at 1000 rpm for 10 min and tryptase and leukotriene C4 levels were measured.
To measure tryptase levels, 25 μl of supernatant from each well was transferred to a fresh 96-well black bottom plate, to which 100 μl of fresh tryptase substrate solution [(Z-Ala-Lys-Arg-AMC2TFA; Enzyme Systems Products, #AMC-246)] 1:2000 in tryptase assay buffer [0.1 M Hepes (pH 7.5), 10% w/v Glycerol, 10 μM Heparin (Sigma H-4898) 0.01% NaN3] was added. After 30 minute incubation at room temperature, the optical density of the plates is measured at 355 nm/460 nm on a spectrophotometric plate reader. Table 2 provides the IC50 values.

Experiment [2] has as its target T1, Syk kinase (Homo sapiens, UniProt P43405).
T1 construct: purchased Millipore 14-314
Nature of the experiment: ELISA-based Syk kinase assay (phosphorylation of HS1 peptide substrate by isolated Syk kinase). In kind it is biochemical. The settings on record: IC50 of Syk kinase inhibition; 2 μM ATP, 2 μM peptide substrate. As to the method: Compounds were tested for the ability to inhibit Syk kinase catalyzed phosphorylation of a peptide substrate in an assay with isolated Syk kinase.
An assay was carried out in a Costar white 96 well plate (Fisher Scientific, Cat No. 07-200-591) coated overnight with 0.01 mg/ml Neutravidin (Pierce, 100 μl/well) at 4° C. Neutravidin pre-coated 96 well plates were blocked with 2% BSA in PBST buffer for at least 1 hour before starting the assay at room temperature. Serially diluted compound stock solution containing a subject compound was prepared separately in DMSO solution starting from 300 μM and 2 μl of this diluted compound (3% DMSO final concentration) was added directly to neutravidin coated assay plate containing 55.5 μl/well of kinase reaction buffer composed of 20 mM HEPES, pH 7.4, 5 mM MgCl2, 2 mM MnCl2, 1 mM DTT, 0.01% Tween 20 pre-mixed with ATP and kinase substrate (HS1 peptide). Reaction was initiated by adding of 2.5 μl/well Syk kinase (Millipore, Cat No. 14-314) resulting in a final reaction volume of 60 μl and then the reaction was allowed to continue for 30 minutes at room temperature. Final enzyme reaction conditions were 20 mM HEPES, pH 7.4, 5 mM MgCl2, 2 mM MnCl2, 1 mM DTT, 0.01% Tween 20, 0.25 ng Syk, 2 μM ATP, 2 μM peptide substrate (Biotin-EQEDEPEGDYEEVLE-CONH2, SynPep Corporation). After completing the reaction, assay plate was washed three times with PBST and incubated for 1 hour at room temperature with 100 μl/well of phosphopeptide detection antibody solution prepared by mixing 1-1000 diluted mouse anti-pTyr monoclonal antibody (Cell Signal Technology, Cat No. 9411) and 1-1000 diluted goat HRP-conjugated anti-mouse IgG (Jackson Immunoresearch, Cat. No. 115-035-003). Before developing the plate with supersignal ELISA pico chemiluminescent substrate (Pierce), plate was washed three times again with PBST and were read on a SpectraMax M5 microplate reader (Moleculear Devices).

In the case of `COc1ccc(Nc2c(-c3ccc(NC(C)=O)cc3)[nH]c3c(C#N)cnn23)cc1OC` [Compound 2], the values for the IC50 in experiment [1] and in experiment [2] were less than 10 µM and 0.51 to 2.99 µM, respectively.

Regarding `CC(=O)Nc1ccc(-c2[nH]c3c(C#N)cnn3c2Nc2cccc(C(F)(F)F)c2)cc1` [Compound 3], the IC50 in experiment [1] fell in the range of 11 to 100 µM; in experiment [2], 0.51 to 2.99 µM.

In the case of `COc1ccc2[nH]cc(-c3[nH]c4c(C#N)cnn4c3Nc3ccc(OC)c(OC)c3)c2c1` [Compound 4], the IC50 in experiment [1] was less than 10 µM; in experiment [2] it was 0.51 to 2.99 µM. For `COc1ccc(Nc2c(-c3ccc4[nH]ccc4c3)[nH]c3c(C#N)cnn23)cc1OC` [Compound 5] the same measures were less than 10 µM and 0.51 to 2.99 µM. As for `COc1ccc(Nc2c(-c3ccc4cc[nH]c4c3)[nH]c3c(C#N)cnn23)cc1OC` [Compound 6], the IC50 in experiment [1] was less than 10 µM; in experiment [2], 0.51 to 2.99 µM.

In the case of `COc1ccc(Nc2c(-c3ccc(Oc4ccccc4)cc3)[nH]c3c(C#N)cnn23)cc1OC` [Compound 8], the IC50 in experiment [1] is less than 10 µM; in experiment [2], 3 to 25 µM.

With `COC(=O)c1cccc(Nc2c(-c3ccc4c(c3)NC(=O)CO4)[nH]c3c(C#N)cnn23)c1` [Compound 10], the IC50 in experiment [1] lay in the range of 11 to 100 µM; in experiment [2], 0.51 to 2.99 µM.

With `COc1cccc(Nc2c(-c3cc(OC)c(OC)c(OC)c3)[nH]c3c(C#N)cnn23)c1` [Compound 14], the IC50 in experiment [1] is less than 10 µM; in experiment [2], 0.51 to 2.99 µM. For `COc1cc(-c2[nH]c3c(C#N)cnn3c2Nc2ccc(Br)cc2)cc(OC)c1OC` [Compound 23] the same measures were less than 10 µM and 0.51 to 2.99 µM.

`COc1ccc2c(-c3[nH]c4c(C#N)cnn4c3Nc3ccc(OC)c(OC)c3)c[nH]c2c1` [Compound 24]: the IC50 in experiment [1] was less than 10 µM; in experiment [2] it was 0.51 to 2.99 µM. For `COc1cc(-c2[nH]c3c(C#N)cnn3c2Nc2ccc(N3CCOCC3)cc2)cc(OC)c1OC` [Compound 25], the IC50 in experiment [1] was less than 10 µM; in experiment [2], 0.51 to 2.99 µM. On the same counts, the results for `COc1ccc(Nc2c(-c3cc(OC)c(OC)c(OC)c3)[nH]c3c(C#N)cnn23)cc1OC` [Compound 28] are less than 10 µM and less than 0.5 µM. On the same counts, the results for `COc1cc(-c2[nH]c3c(C#N)cnn3c2Nc2cccc(NC(C)=O)c2)cc(OC)c1OC` [Compound 30] are less than 10 µM and 0.51 to 2.99 µM. On the same counts, the results for `COc1ccc(-c2[nH]c3c(C#N)cnn3c2Nc2cccc(NC(C)=O)c2)cc1OC` [Compound 32] are less than 10 µM and 0.51 to 2.99 µM. For the compound `CSc1ccc(-c2[nH]c3c(C#N)cnn3c2Nc2cccc(NC(C)=O)c2)cc1` [Compound 33], the IC50 in experiment [1] is less than 10 µM; in experiment [2], 0.51 to 2.99 µM. For the compound `COc1ccc(Nc2c(-c3ccc4c(c3)OCCO4)[nH]c3c(C#N)cnn23)cc1OC` [Compound 38], the values for the IC50 in experiment [1] and in experiment [2] were greater than 5000 µM and 0.51 to 2.99 µM, respectively.

In the case of `N#Cc1cnn2c(Nc3ccc(N4CCOCC4)cc3)c(-c3ccc4c(c3)NC(=O)CO4)[nH]c12` [Compound 43], the values for the IC50 in experiment [1] and in experiment [2] were 11 to 100 µM and 3 to 25 µM, respectively. On the same counts, the results for `COc1cccc(Nc2c(-c3ccc4cc[nH]c4c3)[nH]c3c(C#N)cnn23)c1` [Compound 44] are less than 10 µM and 3 to 25 µM. For `N#Cc1cnn2c(Nc3ccc(Br)cc3)c(-c3ccc4c(c3)NC(=O)CO4)[nH]c12` [Compound 45] the same measures were 101 to 5000 µM and 0.51 to 2.99 µM. For `CC(=O)Nc1cccc(Nc2c(-c3ccc4cc[nH]c4c3)[nH]c3c(C#N)cnn23)c1` [Compound 47] the same measures were less than 10 µM and 0.51 to 2.99 µM.

For `COc1ccc(Nc2c(-c3ccc(S(C)(=O)=O)cc3)[nH]c3c(C#N)cnn23)cc1OC` [Compound 48], the figures for the IC50 in experiment [1] and in experiment [2] were less than 10 µM and 0.51 to 2.99 µM, respectively. On the same counts, the results for `COc1cc(-c2[nH]c3c(C#N)cnn3c2Nc2ccc3c(c2)OCCO3)cc(OC)c1OC` [Compound 49] are less than 10 µM and 0.51 to 2.99 µM. For `N#Cc1cnn2c(Nc3ccc4c(c3)OCCO4)c(-c3ccc4c(c3)NC(=O)CO4)[nH]c12` [Compound 50], the IC50 in experiment [1] was greater than 5000 µM; in experiment [2], 0.51 to 2.99 µM. In the case of `COc1ccc(Nc2c(-c3ccc4c(c3)OCO4)[nH]c3c(C#N)cnn23)cc1OC` [Compound 51], the IC50 was less than 10 µM in experiment [1] and 0.51 to 2.99 µM in experiment [2]. On the same counts, the results for `COc1ccc(-c2[nH]c3c(C#N)cnn3c2Nc2ccc(OC)c(OC)c2)cc1F` [Compound 52] are greater than 5000 µM and 3 to 25 µM.

For `COc1cc(-c2[nH]c3c(C#N)cnn3c2Nc2ccc(F)c(F)c2)cc(OC)c1OC` [Compound 64], the IC50 in experiment [1] was less than 10 µM; in experiment [2], 0.51 to 2.99 µM. `COc1cc(-c2[nH]c3c(C#N)cnn3c2Nc2ccc(CNC(C)=O)cc2)cc(OC)c1OC` [Compound 72]: the IC50 is less than 10 µM in experiment [1] and 0.51 to 2.99 µM in experiment [2]. On to `COC(=O)COc1ccc(-c2[nH]c3c(C#N)cnn3c2Nc2ccc3c(c2)OCCO3)cc1OC` [Compound 85], for which the values for the IC50 in experiment [1] and in experiment [2] were less than 10 µM and less than 0.5 µM, respectively. Take `COc1cc(Nc2c(-c3cc(OC)c(OC)c(OC)c3)[nH]c3c(C#N)cnn23)ccc1F` [Compound 87]: the IC50 in experiment [1] is less than 10 µM; in experiment [2] it was less than 0.5 µM.

Take `N#Cc1cnn2c(Nc3ccc(Br)cc3)c(-c3ccc(C(N)=O)cc3)[nH]c12` [Compound 98]: the IC50 is 101 to 5000 µM in experiment [1] and 0.51 to 2.99 µM in experiment [2].

Regarding `COc1ccc(Nc2c(-c3cc(O)c(OC)c(OC)c3)[nH]c3c(C#N)cnn23)cc1OC` [Compound 100], the IC50 is less than 10 µM in experiment [1] and less than 0.5 µM in experiment [2].

For `COc1ccc(Nc2c(-c3ccc(OCCO)c(OC)c3)[nH]c3c(C#N)cnn23)cc1OC` [Compound 101], the IC50 in experiment [1] was less than 10 µM; in experiment [2] it was 0.51 to 2.99 µM. Take `COc1ccc(Nc2c(-c3ccc(C(N)=O)cc3)[nH]c3c(C#N)cnn23)cc1OC` [Compound 103]: the figures for the IC50 in experiment [1] and in experiment [2] were 11 to 100 µM and less than 0.5 µM, respectively. As to `COc1ccc(Nc2c(-c3ccc(N4CCOCC4)cc3)[nH]c3c(C#N)cnn23)cc1OC` [Compound 104], the values for the IC50 in experiment [1] and in experiment [2] were less than 10 µM and 0.51 to 2.99 µM, respectively. On to `COc1ccc(Nc2c(-c3cccc(N4CCOCC4)c3)[nH]c3c(C#N)cnn23)cc1OC` [Compound 105], for which the IC50 was in the range of 11 to 100 µM in experiment [1] and 0.51 to 2.99 µM in experiment [2]. In turn, `COc1cc(-c2[nH]c3c(C#N)cnn3c2Nc2ccc(C)c(F)c2)cc(OC)c1OC` [Compound 121] yielded an IC50 in experiment [2] of 0.51 to 2.99 µM. Still for that read-out and setting: to `COC(=O)COc1ccc(-c2[nH]c3c(C#N)cnn3c2Nc2ccc(F)c(OC)c2)cc1OC` [Compound 123] belongs 0.51 to 2.99 µM; to `COc1cc(Nc2c(-c3cc(OC)c(OC)c(OC)c3)[nH]c3c(C#N)cnn23)ccc1OC1CCCC1` [Compound 128], 0.51 to 2.99 µM; to `COc1cc(Nc2c(-c3cc(OC)c(OC)c(OC)c3)[nH]c3c(C#N)cnn23)ccc1OCCN1CCCC1` [Compound 129], 0.51 to 2.99 µM. Still for that read-out and setting: to `COc1cc(-c2[nH]c3c(C#N)cnn3c2Nc2ccc(F)c(C(F)(F)F)c2)cc(OC)c1OC` [Compound 130] belongs 0.51 to 2.99 µM; to `COc1cc(-c2[nH]c3c(C#N)cnn3c2Nc2ccc(OC(F)(F)F)cc2)cc(OC)c1OC` [Compound 131], 0.51 to 2.99 µM. Consider `COc1cc(-c2[nH]c3c(C#N)cnn3c2Nc2ccc(N3CCCC3)c(F)c2)cc(OC)c1OC` [Compound 134], for which, in experiment [2], the IC50 was in the range of 0.51 to 2.99 µM.

Source of the values: patent US8377945B2, “Small molecule inhibitors of spleen tyrosine kinase (SYK)” (Rigel Pharmaceuticals Inc., priority 2009, dated 2013).
